As usually defined, the IC50 is the concentration needed to halve the response being measured. Read a high IC50 as lower potency.

Structures are written as SMILES.

The values below come from patent US20060264460A1 (Wyeth, priority 2005, published 2006).

The target in this assay is T1, human Cot/Tpl2 kinase (Homo sapiens, UniProt P41279).
T1 construct: human Cot/Tpl2 kinase construct encoding residues 30-398; 6His (N); made in house; host or cells: Sf9 insect cells, baculovirus system (BD Biosciences)
T1 sequence (P41279 30-398): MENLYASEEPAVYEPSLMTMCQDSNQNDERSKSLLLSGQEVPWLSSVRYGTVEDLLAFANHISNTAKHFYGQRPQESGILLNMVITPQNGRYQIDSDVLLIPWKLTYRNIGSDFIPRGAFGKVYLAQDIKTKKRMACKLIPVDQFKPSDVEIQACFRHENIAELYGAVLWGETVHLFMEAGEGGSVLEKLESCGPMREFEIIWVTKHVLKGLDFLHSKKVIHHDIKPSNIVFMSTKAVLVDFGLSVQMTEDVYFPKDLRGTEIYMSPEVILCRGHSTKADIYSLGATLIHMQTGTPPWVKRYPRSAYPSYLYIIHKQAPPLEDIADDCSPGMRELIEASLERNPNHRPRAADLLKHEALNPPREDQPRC
The assay is described as follows: Tpl2/Cot kinase assay: GST-MEK1 phosphorylation detected by ELISA (DELFIA Eu). It counts as biochemical. The conditions noted are these: Table 2; Tpl2/Cot kinase, GST-MEK1 substrate, 50 uM ATP. The gist of the method:
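His-tagged human Tpl2 from Sf9 cells, Ni-affinity and size-exclusion purified (monomer). 0.4 nM Tpl2 with 35 nM GST-MEK1, 50 uM ATP, MOPS pH 7.2, 1% DMSO, 1 h at 30° C; EDTA stop. MEK1 Ser217/221 phosphorylation detected by anti-phospho-MEK1 and Eu-labelled secondary ELISA; IC50 fitted.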
(ELISA stands for enzyme-linked immunosorbent assay.)
In the case of `CC(C)(C)OC(=O)N1CCC(n2cc(CNc3cc(Br)c4ncc(C#N)c(Nc5ccc(F)c(Cl)c5)c4c3)nn2)CC1` [Example 493], the IC50 is 250 nM. The compound `CC(C)(C)OC(=O)N1CCC(Cn2cc(CNc3cc(Br)c4ncc(C#N)c(Nc5ccc(F)c(Cl)c5)c4c3)nn2)CC1` [Example 494] displayed a half-inhibitory concentration (IC50) of 170 nM. For the compound `N#Cc1cnc2c(Br)cc(NCc3cn(Cc4ccncc4)nn3)cc2c1Nc1ccc(F)c(Cl)c1` [Example 495], half-maximal inhibition (IC50) was put at 4.8 nM. With `N#Cc1cnc2c(Br)cc(NCc3cn(CC4CCNCC4)nn3)cc2c1Nc1ccc(F)c(Cl)c1` [Example 496] the figure was 47 nM; with `N#Cc1cnc2c(Br)cc(NCc3cn(CC(F)(F)F)nn3)cc2c1Nc1ccc(F)c(Cl)c1` [Example 498], 100 nM. The value for `CN1CCC(Cn2cc(CNc3cc(Br)c4ncc(C#N)c(Nc5ccc(F)c(Cl)c5)c4c3)nn2)CC1` [Example 499] was 12 nM; that for `CN(CCn1cc(CNc2cc(Br)c3ncc(C#N)c(Nc4ccc(F)c(Cl)c4)c3c2)nn1)C(=O)OC(C)(C)C` [Example 500] was 67 nM; that for `CN(CCn1cc(CN(Cc2cn(CCN(C)C(=O)OC(C)(C)C)nn2)c2cc(Br)c3ncc(C#N)c(Nc4ccc(F)c(Cl)c4)c3c2)nn1)C(=O)OC(C)(C)C` [Example 501] was 4700 nM. The value for `CN(CCn1cc(CNc2cc(Cl)c3ncc(C#N)c(Nc4ccc(F)c(Cl)c4)c3c2)nn1)C(=O)OC(C)(C)C` [Example 502] was 48 nM. In turn, `CC(C)(C)OC(=O)N1CCC(CCn2cc(CNc3cc(Br)c4ncc(C#N)c(Nc5ccc(F)c(Cl)c5)c4c3)nn2)CC1` [Example 503] showed an IC50 of 130 nM.

In turn, `CC(C)(C)OC(=O)N1CCC(CCn2cc(CNc3cc(Cl)c4ncc(C#N)c(Nc5ccc(F)c(Cl)c5)c4c3)nn2)CC1` [Example 504] returned an IC50 of 75 nM. With `CN1CCC(Cn2cc(CN(C)c3cc(Br)c4ncc(C#N)c(Nc5ccc(F)c(Cl)c5)c4c3)nn2)CC1` [Example 505] the figure was 290 nM; with `CN1CCC(n2cc(CN(C)c3cc(Br)c4ncc(C#N)c(Nc5ccc(F)c(Cl)c5)c4c3)nn2)CC1` [Example 506], 22 nM; with `COCCCc1nc[nH]c1CNc1cc(Br)c2ncc(C#N)c(Nc3ccc(F)c(Cl)c3)c2c1` [Example 507], 62.1 nM. With `CSCCn1cc(CNc2cc(Br)c3ncc(C#N)c(Nc4ccc(F)c(Cl)c4)c3c2)nn1` [Example 508] the figure was 82 nM; with `CC(C)(C)OC(=O)N1CCC(CCn2cc(CN(Cc3cn(CCC4CCN(C(=O)OC(C)(C)C)CC4)nn3)c3cc(Br)c4ncc(C#N)c(Nc5ccc(F)c(Cl)c5)c4c3)nn2)CC1` [Example 509], above 3000 nM; with `N#Cc1cnc2c(Br)cc(NCc3cn(CCO)nn3)cc2c1Nc1ccc(F)c(Cl)c1` [Example 510], 28 nM. With `CS(=O)(=O)CCn1cc(CNc2cc(Br)c3ncc(C#N)c(Nc4ccc(F)c(Cl)c4)c3c2)nn1` [Example 511] the figure was 91 nM; with `CNCCn1cc(CNc2cc(Br)c3ncc(C#N)c(Nc4ccc(F)c(Cl)c4)c3c2)nn1` [Example 512], 38 nM. `CNCCn1cc(CNc2cc(Cl)c3ncc(C#N)c(Nc4ccc(F)c(Cl)c4)c3c2)nn1` [Example 513] yielded a concentration for half-maximal inhibition (IC50) of 29 nM. The value for `CN(C)CCCn1cc(CNc2cc(Cl)c3ncc(C#N)c(Nc4ccc(F)c(Cl)c4)c3c2)nn1` [Example 514] was 39 nM; that for `N#Cc1cnc2c(Cl)cc(NCc3cn(CCN4CCCC4)nn3)cc2c1Nc1ccc(F)c(Cl)c1` [Example 515] was 40 nM; that for `N#Cc1cnc2c(Br)cc(NCc3cn(CCC4CCNCC4)nn3)cc2c1Nc1ccc(F)c(Cl)c1` [Example 517] was 90 nM. The value for `CN1CCC(CCn2cc(CNc3cc(Br)c4ncc(C#N)c(Nc5ccc(F)c(Cl)c5)c4c3)nn2)CC1` [Example 520] was 44 nM; that for `CN1CCC(CCn2cc(CNc3cc(Cl)c4ncc(C#N)c(Nc5ccc(F)c(Cl)c5)c4c3)nn2)CC1` [Example 521] was 38 nM. As to `COCCn1cc(CNc2cc(Br)c3ncc(C#N)c(Nc4ccc(F)c(Cl)c4)c3c2)nn1` [Example 522], the concentration for half-maximal inhibition (IC50) came out at 18 nM. The value for `N#Cc1cnc2c(Br)cc(NCc3cn(CCCO)nn3)cc2c1Nc1ccc(F)c(Cl)c1` [Example 523] was 18 nM.

Compound `N#Cc1cnc2c(Br)cc(NCc3cn(CCS(=O)(=O)C4CCCC4)nn3)cc2c1Nc1ccc(F)c(Cl)c1` [Example 524] showed a half-maximal inhibitory concentration (IC50) of 53 nM. In turn, `CS(=O)(=O)N1CCC(n2cc(CNc3cc(Br)c4ncc(C#N)c(Nc5ccc(F)c(Cl)c5)c4c3)nn2)CC1` [Example 525] came in with an IC50 of 1.1 nM. As for `N#Cc1cnc2c(Br)cc(NCc3cnc4ccccn34)cc2c1Nc1ccc(F)c(Cl)c1` [Example 526], the IC50 was found to be 280 nM. With `Fc1ccc(Nc2ncncc2-c2ccc(NCc3cnc[nH]3)cc2)cc1Cl` [Example 527] the figure was above 3000 nM. `N#Cc1cnc2c(Br)cc(NCc3cnc4cnccn34)cc2c1Nc1ccc(F)c(Cl)c1` [Example 528] had an IC50 of 110 nM. The value for `CS(=O)(=O)CCn1cnc(CNc2cc(Br)c3ncc(C#N)c(Nc4ccc(F)c(Cl)c4)c3c2)c1` [Example 529] was 43 nM; that for `CSCn1cc(CNc2cc(Br)c3ncc(C#N)c(Nc4ccc(F)c(Cl)c4)c3c2)nn1` [Example 530] was 12 nM. The value for `CS(=O)(=O)Cn1cc(CNc2cc(Br)c3ncc(C#N)c(Nc4ccc(F)c(Cl)c4)c3c2)nn1` [Example 531] was 33 nM; that for `C[S+]([O-])Cn1cc(CNc2cc(Br)c3ncc(C#N)c(Nc4ccc(F)c(Cl)c4)c3c2)nn1` (stereo not shown) [Example 532] was 120 nM. With `N#Cc1cnc2c(Br)cc(NCc3cn(Cc4cccnc4)cn3)cc2c1Nc1ccc(F)c(Cl)c1` [Example 533] the figure was 3.1 nM.

Take `N#Cc1cncc(-c2ccccc2NCc2cnc[nH]2)c1Nc1ccc(F)c(Cl)c1` [Example 534]: the half-inhibitory concentration (IC50) was above 3000 nM. The value for `Fc1ccc(Nc2ncncc2-c2cccc(NCc3cnc[nH]3)c2)cc1Cl` [Example 535] was above 3000 nM; that for `Fc1ccc(Nc2ncncc2-c2ccccc2NCc2cnc[nH]2)cc1Cl` [Example 536] was above 3000 nM; that for `N#Cc1cnc2c(Br)cc(NCc3cc(C4CCNCC4)n[nH]3)cc2c1Nc1ccc(F)c(Cl)c1` [Example 537] was 800 nM. With `N#Cc1cnc2c(Br)cc(NCc3cn(CCCN4CCCCC4)nn3)cc2c1Nc1ccc(F)c(Cl)c1` [Example 538] the figure was 3.4 nM. The value for `N#Cc1cnc2c(Cl)cc(NCc3cn(CCCN4CCCCC4)nn3)cc2c1Nc1ccc(F)c(Cl)c1` [Example 539] was 1.1 nM; that for `CC(C)(C)OC(=O)N1CCCC(Cn2cc(CNc3cc(Br)c4ncc(C#N)c(Nc5ccc(F)c(Cl)c5)c4c3)nn2)C1` (stereo not shown) [Example 540] was 120 nM. On to `CC(C)(C)OC(=O)N1CCCC(Cn2cc(CNc3cc(Cl)c4ncc(C#N)c(Nc5ccc(F)c(Cl)c5)c4c3)nn2)C1` (stereo not shown) [Example 541], for which the half-maximal inhibitory concentration (IC50) was 250 nM.

Take `CC(C)(C)CN1CCC(n2cc(CNc3cc(Br)c4ncc(C#N)c(Nc5ccc(F)c(Cl)c5)c4c3)nn2)CC1` [Example 542]: the midpoint of inhibition, the IC50, lay at 190 nM. The value for `CC(C)(C)OC(=O)N1CCCC1Cn1cc(CNc2cc(Cl)c3ncc(C#N)c(Nc4ccc(F)c(Cl)c4)c3c2)nn1` (stereo not shown) [Example 543] was 320 nM. `N#Cc1cnc2c(Br)cc(NCc3cn(CC4CCCNC4)nn3)cc2c1Nc1ccc(F)c(Cl)c1` (stereo not shown) [Example 545] showed a half-inhibitory concentration (IC50) of 33 nM.

Regarding `N#Cc1cnc2c(Cl)cc(NCc3cn(CC4CCCNC4)nn3)cc2c1Nc1ccc(F)c(Cl)c1` (stereo not shown) [Example 546], the IC50 stood at 48 nM.

`CC(=O)N1CCC(n2cc(CNc3cc(Br)c4ncc(C#N)c(Nc5ccc(F)c(Cl)c5)c4c3)nn2)CC1` [Example 547] came in with an IC50 of 6.1 nM. As for `CN1CCCC1CCn1cnc(CNc2cc(Br)c3ncc(C#N)c(Nc4ccc(F)c(Cl)c4)c3c2)c1` (stereo not shown) [Example 548], inhibition was half-maximal at 34 nM (IC50). With `N#Cc1cnc2c(Br)cc(NCc3cn(CC4CCCN4)nn3)cc2c1Nc1ccc(F)c(Cl)c1` (stereo not shown) [Example 550] the figure was 9.2 nM; with `C=CCn1cnc(CNc2cc(Br)c3ncc(C#N)c(Nc4ccc(F)c(Cl)c4)c3c2)c1` [Example 551], 4.8 nM. The value for `N#Cc1cnc2c(Cl)cc(NCc3cn(Cc4cccnc4)cn3)cc2c1Nc1ccc(F)c(Cl)c1` [Example 553] was 0.7 nM. Take `N#Cc1cnc2c(Br)cc(NCc3cn(-c4ccncc4)cn3)cc2c1Nc1ccc(F)c(Cl)c1` [Example 554]: half-maximal inhibition (IC50) required 23 nM. With `N#Cc1cnc2c(Br)cc(NCc3cc([C@@H]4CCCN4)n[nH]3)cc2c1Nc1ccc(F)c(Cl)c1` [Example 555] the figure was 330 nM. The value for `N#Cc1cnc2c(Br)cc(NCc3cn(CCc4ccccn4)nn3)cc2c1Nc1ccc(F)c(Cl)c1` [Example 558] was 3.4 nM; that for `N#Cc1cnc2c(Br)cc(NCc3cn(-c4ccncc4)nn3)cc2c1Nc1ccc(F)c(Cl)c1` [Example 559] was 5.5 nM. As to `C=CCn1cc(CNc2cc(Br)c3ncc(C#N)c(Nc4ccc(F)c(Cl)c4)c3c2)nn1` [Example 561], the IC50 amounted to 20 nM.

On to `COCCn1cc(CNc2cc(Cl)c3ncc(C#N)c(Nc4ccc(F)c(Cl)c4)c3c2)nn1` [Example 562], for which the IC50 turned out to be 20 nM. With `N#Cc1cnc2c(Cl)cc(NCc3cn(CCc4ccccn4)nn3)cc2c1Nc1ccc(F)c(Cl)c1` [Example 563] the figure was 25 nM; with `COCCOCCn1cc(CNc2cc(Cl)c3ncc(C#N)c(Nc4ccc(F)c(Cl)c4)c3c2)nn1` [Example 564], 21 nM. The value for `COCCOCCn1cc(CNc2cc(Br)c3ncc(C#N)c(Nc4ccc(F)c(Cl)c4)c3c2)nn1` [Example 565] was 100 nM; that for `CCN1CCC(Cn2cc(CNc3cc(Br)c4ncc(C#N)c(Nc5ccc(F)c(Cl)c5)c4c3)nn2)CC1` [Example 566] was 40 nM.
